Measured values: ChEMBL document CHEMBL1201862, “PubChem BioAssay data set” (2004)
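Assay format: 96-well plates, 48-hour exposure. Here, GI50 denotes the concentration required for 50% inhibition of growth.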 Activity calls are given as the source filed them. Rule as the data show it: active = GI50 up to about 1.1 µM and inactive = higher.

Columns and labels:
Test in all cases: growth of human tumour cells (NCI), 48 h
OVCAR-5 = tested on: OVCAR-5
Hs-578T = tested on: Hs-578T
DU-145 = tested on: DU-145
NCI/ADR-RES = tested on: NCI/ADR-RES
SW-620 = tested on: SW-620
UO-31 = tested on: UO-31
UACC-257 = tested on: UACC-257
Malme-3M = tested on: Malme-3M
SF-539 = tested on: SF-539
ACHN = tested on: ACHN
T47D = tested on: T47D
HCT-116 = tested on: HCT-116
UACC-62 = tested on: UACC-62
CAKI-1 = tested on: CAKI-1
NCI-H23 = tested on: NCI-H23
HOP-62 = tested on: HOP-62
A549 = tested on: A549
SNB-75 = tested on: SNB-75

Measured: GI50

O=C(c1cccs1)N(C(=S)OCc1ccccn1)c1ccccc1
inactive: OVCAR-5 23.4 µM | Hs-578T 38.3 µM | DU-145 69.2 µM | NCI/ADR-RES 35.2 µM | SW-620 92 µM | UO-31 32.6 µM | UACC-257 > 100 µM | Malme-3M 18.6 µM | SF-539 38.5 µM | ACHN 50.6 µM | T47D 53.8 µM | HCT-116 63.5 µM | UACC-62 > 100 µM | CAKI-1 > 100 µM | NCI-H23 84.9 µM

CN1CCC2(CC1)C(=O)N(NC(N)=O)C(=O)C2c1ccccc1 (centres undefined)
inactive: OVCAR-5 > 100 µM | Hs-578T > 100 µM | DU-145 > 100 µM | NCI/ADR-RES > 100 µM | SW-620 > 100 µM | HOP-62 > 100 µM | UO-31 > 100 µM | UACC-257 > 100 µM | Malme-3M > 100 µM | SF-539 > 100 µM | ACHN > 100 µM | T47D > 100 µM | HCT-116 > 100 µM | UACC-62 > 100 µM | A549 > 100 µM | CAKI-1 > 100 µM | NCI-H23 > 100 µM | SNB-75 > 100 µM

CCOC(=O)N1CCC2(CC1)CC(=O)N(Nc1ccccc1)C2=O
inactive: OVCAR-5 91.6 µM | Hs-578T 41.1 µM | DU-145 > 100 µM | NCI/ADR-RES > 100 µM | SW-620 > 100 µM | HOP-62 > 100 µM | UO-31 39.9 µM | UACC-257 > 100 µM | Malme-3M > 100 µM | SF-539 27.5 µM | ACHN 9.71 µM | T47D 43.5 µM | HCT-116 > 100 µM | UACC-62 32.1 µM | A549 > 100 µM | CAKI-1 > 100 µM | NCI-H23 > 100 µM | SNB-75 > 100 µM

COc1ccc(NC(=O)c2cc(NC(=O)/C=C/c3ccccc3)c(OC)c(OC)c2)cc1
inactive: OVCAR-5 40.7 µM | Hs-578T 43.5 µM | DU-145 16.3 µM | NCI/ADR-RES 28.5 µM | SW-620 6.81 µM | HOP-62 31.5 µM | UO-31 1.98 µM | UACC-257 44.1 µM | Malme-3M 18.2 µM | SF-539 5.38 µM | ACHN 4.5 µM | T47D 8.91 µM | HCT-116 2.48 µM | UACC-62 3.9 µM | A549 7.55 µM | CAKI-1 8.73 µM | NCI-H23 > 100 µM | SNB-75 2.26 µM
